≈ marks a conversion by molar mass, not a printed value. Where two headings read alike, the source gives them in different places.
Assays:
Experiment in all cases: MIC, broth-microdilution (CLSI VET01-A4)
Assay type in all cases: cell-based
[1] = system: Mannheimia haemolytica MH 10720 (154, BRD field isolate); details: Mannheimia haemolytica MH 10720; for MIC: read-out: MIC MH 10720
Experimental: (§1) The Minimum inhibitory concentrations (MIC) of compounds according to the invention for a number of veterinary bacterial pathogens were determined by the broth-microdilution method according to CLSI document VET01-A4.
(§2) Microdilution trays containing a doubling dilution series of the test compound were used for the tests. The MIC results were interpreted according to the CLSI documents VET01-S3. The lowest concentration of compound at which no visible growth (i.e. no turbidity) detected by the unaided eye was recorded as the MIC.
(§3) The Minimum inhibitory concentrations (MIC) of compounds according to the invention were determined by the broth-microdilution method according to CLSI document VET01-A4.
(§4) Microdilution trays containing a doubling dilution series of the test compound were used for the tests.
(§5) The MIC results were interpreted according to the CLSI documents VET01-S3. The lowest concentration of compound at which no visible growth (i.e. no turbidity) detected by the unaided eye was recorded as the MIC.

[2] = system: Mannheimia haemolytica MH 12587 (1071, BRD field isolate, macrolide-resistance: erm+, E+); details: Mannheimia haemolytica MH 12587, macrolide-resistant
Experimental: as §1, §2, §3, §4, §5

[3] = system: Mannheimia haemolytica MH 6357 (M7/2, reference strain, cattle infection strain); details: Mannheimia haemolytica MH 6357; for MIC: read-out: MIC MH 6357
Experimental: as §1, §2, §3, §4, §5

[4] = system: Mannheimia haemolytica MH 6374 (ATCC 33396, reference strain); details: Mannheimia haemolytica MH 6374; for MIC: read-out: MIC MH 6374
Experimental: as §1, §2, §3, §4, §5

[5] = system: Pasteurella multocida PM 12080 (IV102277-0093, BRD field isolate); details: Pasteurella multocida PM 12080; for MIC: read-out: MIC PM 12080
Experimental: as §1, §2, §3, §4, §5

[6] = system: Pasteurella multocida PM 6267 (P 2225 (L386), reference strain, mouse infection strain); details: Pasteurella multocida PM 6267; for MIC: read-out: MIC PM 6267
Experimental: as §1, §2, §3, §4, §5

[7] = system: Pasteurella multocida PM 6391 (ATCC 43137, reference strain); details: Pasteurella multocida PM 6391; for MIC: read-out: MIC PM 6391
Experimental: as §1, §2, §3, §4, §5

[8] = system: Mannheimia haemolytica MH 13065 (XB0446-6003.9, BRD field isolate)
Experimental: as §1, §2

[9] = system: Mannheimia haemolytica MH 13093 (XB0472-6014.1, BRD field isolate)
Experimental: as §1, §2

CC(C)(N)C(NC(=O)c1ccc(C#Cc2ccc(CNCc3cccs3)nc2)cc1)C(=O)NO (racemic) [Compound 549]
MIC [1]: 0.4 µM (≈ 0.191 µg/mL) | MIC MH 12587 [2]: 1.6 µM (≈ 0.764 µg/mL) | MIC [3]: 0.8 µM (≈ 0.382 µg/mL) | MIC [4]: 0.4 µM (≈ 0.191 µg/mL) | MIC PM 12080 [5]: <=0.1 μM | MIC [6]: 0.8 µM (≈ 0.382 µg/mL) | MIC PM 6391 [7]: <=0.1 μM | MIC [8]: 0.8 µM (≈ 0.382 µg/mL) | MIC [9]: 1.6 µM (≈ 0.764 µg/mL)

COc1ccc(CNCc2ccc(C#Cc3ccc(C(=O)NC(C(=O)NO)C(C)(C)N)cc3)cc2)cc1 (centres unmarked) [Compound 513]
MIC [1]: 0.2 µM (≈ 0.1 µg/mL) | MIC MH 12587 [2]: 1.6 µM (≈ 0.801 µg/mL) | MIC [3]: 1.6 µM (≈ 0.801 µg/mL) | MIC [4]: 0.8 µM (≈ 0.4 µg/mL) | MIC [5]: 0.2 µM (≈ 0.1 µg/mL) | MIC [6]: 1.6 µM (≈ 0.801 µg/mL) | MIC [7]: 0.2 µM (≈ 0.1 µg/mL) | MIC [8]: 1.6 µM (≈ 0.801 µg/mL) | MIC [9]: 1.6 µM (≈ 0.801 µg/mL)

CC(C)(N)C(NC(=O)c1ccc(C#Cc2ccc([N+](=O)[O-])cc2)cc1)C(=O)NO (centres unmarked) [C. 552, N-[2-amino-1-(hydroxycarbamoyl)-2-methyl-propyl]-4-[2-(4-nitrophenyl)ethynyl]benzamide]
MIC [1]: 0.2 µM (≈ 0.0793 µg/mL) | MIC [3]: 0.8 µM (≈ 0.317 µg/mL) | MIC ([4]; ATCC33396): 0.2 µM (≈ 0.0793 µg/mL) | MIC [5]: ≤ 0.1 µM | MIC [6]: 0.8 µM (≈ 0.317 µg/mL) | MIC ([7]; ATCC43137): ≤ 0.1 µM | MIC [8]: 0.8 µM (≈ 0.317 µg/mL) | MIC [9]: 0.8 µM (≈ 0.317 µg/mL)

COc1ccc(CNCc2ccc(C#Cc3ccc(C(=O)NC(C(=O)NO)C(C)(C)N)cc3)s2)cc1 (centres unmarked) [Compound 526]
MIC [1]: 0.2 µM (≈ 0.101 µg/mL) | MIC MH 12587 [2]: 1.6 µM (≈ 0.811 µg/mL) | MIC [3]: 0.8 µM (≈ 0.405 µg/mL) | MIC [4]: 0.4 µM (≈ 0.203 µg/mL) | MIC [5]: 0.2 µM (≈ 0.101 µg/mL) | MIC [6]: 1.6 µM (≈ 0.811 µg/mL) | MIC [7]: 0.2 µM (≈ 0.101 µg/mL) | MIC [8]: 0.8 µM (≈ 0.405 µg/mL) | MIC [9]: 1.6 µM (≈ 0.811 µg/mL)

CC(C)(N)C(NC(=O)c1ccc(C#Cc2ccc(N)cc2)cc1)C(=O)NO (centres unmarked) [C. 553, N-(3-amino-1-(hydroxyamino)-3-methyl-1-oxobutan-2-yl)-4-((4-aminophenyl)ethynyl)benzamide]
MIC [1]: 0.2 µM (≈ 0.0733 µg/mL) | MIC [3]: 0.8 µM (≈ 0.293 µg/mL) | MIC ([4]; ATCC33396): 0.4 µM (≈ 0.147 µg/mL) | MIC [5]: ≤ 0.1 µM | MIC [6]: 0.8 µM (≈ 0.293 µg/mL) | MIC ([7]; ATCC43137): ≤ 0.1 µM | MIC [8]: 1.6 µM (≈ 0.586 µg/mL) | MIC [9]: 0.8 µM (≈ 0.293 µg/mL)

CC(C)(N)C(NC(=O)c1ccc(C#Cc2ccc(CNCc3ccco3)s2)cc1)C(=O)NO (centres unmarked) [Compound 535]
MIC MH 10720 [1]: <=0.1 μM | MIC MH 12587 [2]: 0.8 µM (≈ 0.373 µg/mL) | MIC [3]: 0.8 µM (≈ 0.373 µg/mL) | MIC [4]: 0.2 µM (≈ 0.0933 µg/mL) | MIC PM 12080 [5]: <=0.1 μM | MIC [6]: 0.8 µM (≈ 0.373 µg/mL) | MIC PM 6391 [7]: <=0.1 μM | MIC [8]: 0.4 µM (≈ 0.187 µg/mL) | MIC [9]: 0.8 µM (≈ 0.373 µg/mL)

CC(C)(N)C(NC(=O)c1ccc(C#Cc2ccc(CNCc3ccnc(Cl)c3)s2)cc1)C(=O)NO (centres unmarked) [Compound 533]
MIC [1]: 0.2 µM (≈ 0.102 µg/mL) | MIC MH 12587 [2]: 1.6 µM (≈ 0.819 µg/mL) | MIC [3]: 0.8 µM (≈ 0.41 µg/mL) | MIC [4]: 0.8 µM (≈ 0.41 µg/mL) | MIC PM 12080 [5]: <=0.1 μM | MIC [6]: 1.6 µM (≈ 0.819 µg/mL) | MIC [7]: 0.2 µM (≈ 0.102 µg/mL) | MIC [8]: 0.8 µM (≈ 0.41 µg/mL) | MIC [9]: 0.8 µM (≈ 0.41 µg/mL)

CC(C)(C(NC(=O)c1ccc(C#Cc2ccc(CNC3CC3)cc2)cc1)C(=O)NO)[N+](=O)[O-] (centres unmarked) [Compound 554]
MIC MH 10720 [1]: <=0.1 μM | MIC MH 12587 [2]: 0.8 µM (≈ 0.36 µg/mL) | MIC [3]: 0.4 µM (≈ 0.18 µg/mL) | MIC [4]: 0.4 µM (≈ 0.18 µg/mL) | MIC PM 12080 [5]: <=0.1 μM | MIC [6]: 0.4 µM (≈ 0.18 µg/mL) | MIC [8]: 0.4 µM (≈ 0.18 µg/mL) | MIC [9]: 0.4 µM (≈ 0.18 µg/mL)

Cc1ccc(CNCc2ccc(C#Cc3ccc(C(=O)NC(C(=O)NO)C(C)(C)N)cc3)s2)cc1 (centres unmarked) [Compound 537]
MIC [1]: 0.2 µM (≈ 0.0981 µg/mL) | MIC MH 12587 [2]: 1.6 µM (≈ 0.785 µg/mL) | MIC [3]: 0.8 µM (≈ 0.393 µg/mL) | MIC [4]: 0.8 µM (≈ 0.393 µg/mL) | MIC PM 12080 [5]: <=0.1 μM | MIC [6]: 1.6 µM (≈ 0.785 µg/mL) | MIC [7]: 0.2 µM (≈ 0.0981 µg/mL) | MIC [8]: 0.8 µM (≈ 0.393 µg/mL) | MIC [9]: 1.6 µM (≈ 0.785 µg/mL)

COCCNCc1ccc(C#Cc2ccc(C(=O)NC(C(=O)NO)C(C)(C)N)cc2)s1 (centres unmarked) [Compound 523]
MIC [1]: 0.4 µM (≈ 0.178 µg/mL) | MIC MH 12587 [2]: 1.6 µM (≈ 0.711 µg/mL) | MIC [3]: 1.6 µM (≈ 0.711 µg/mL) | MIC [4]: 0.8 µM (≈ 0.356 µg/mL) | MIC PM 12080 [5]: <=0.1 μM | MIC [7]: 0.2 µM (≈ 0.0889 µg/mL) | MIC [8]: 1.6 µM (≈ 0.711 µg/mL) | MIC [9]: 1.6 µM (≈ 0.711 µg/mL)

C[C@@H](O)[C@H](NC(=O)c1ccc(C#Cc2ccc(CNCc3ccc(F)cc3)s2)cc1)C(=O)NO [Compound 485]
MIC MH 10720 [1]: <=0.1 μM | MIC MH 12587 [2]: 0.4 µM (≈ 0.193 µg/mL) | MIC MH 6357 [3]: <=0.1 μM | MIC MH 6374 [4]: <=0.1 μM | MIC PM 12080 [5]: <=0.1 μM | MIC PM 6267 [6]: <=0.1 μM | MIC PM 6391 [7]: <=0.1 μM | MIC [9]: 0.2 µM (≈ 0.0963 µg/mL)

C[C@@H](O)[C@H](NC(=O)c1ccc(C#Cc2ccc(CN3CC=CC3)cc2)cc1)C(=O)NO [Compound 468]
MIC MH 10720 [1]: <=0.1 μM | MIC MH 12587 [2]: 0.4 µM (≈ 0.168 µg/mL) | MIC MH 6357 [3]: <=0.1 μM | MIC MH 6374 [4]: <=0.1 μM | MIC PM 12080 [5]: <=0.1 μM | MIC PM 6267 [6]: <=0.1 μM | MIC PM 6391 [7]: <=0.1 μM | MIC [9]: 0.4 µM (≈ 0.168 µg/mL)

CC(C)(N)C(NC(=O)c1ccc(C#Cc2ccc(CNCc3ccco3)cc2)cc1)C(=O)NO (centres unmarked) [C. 518]
MIC MH 10720 [1]: <=0.1 μM | MIC MH 12587 [2]: 0.8 µM (≈ 0.368 µg/mL) | MIC [3]: 0.8 µM (≈ 0.368 µg/mL) | MIC [4]: 0.4 µM (≈ 0.184 µg/mL) | MIC PM 12080 [5]: <=0.1 μM | MIC [6]: 0.8 µM (≈ 0.368 µg/mL) | MIC [8]: 0.8 µM (≈ 0.368 µg/mL) | MIC [9]: 0.8 µM (≈ 0.368 µg/mL)

C#CCNCc1ccc(C#Cc2ccc(C(=O)N[C@H](C(=O)NO)[C@@H](C)O)cc2)cc1 [C. 469]
MIC MH 10720 [1]: <=0.1 μM | MIC MH 12587 [2]: 0.4 µM (≈ 0.162 µg/mL) | MIC [3]: 0.2 µM (≈ 0.0811 µg/mL) | MIC MH 6374 [4]: <=0.1 μM | MIC PM 12080 [5]: <=0.1 μM | MIC PM 6267 [6]: <=0.1 μM | MIC PM 6391 [7]: <=0.1 μM | MIC [9]: 0.4 µM (≈ 0.162 µg/mL)

CC(O)C(NC(=O)c1ccc(C#CC#CC=CCNCc2ccnc(Cl)c2)cc1)C(=O)NO (centres unmarked) [Compound 461]
MIC MH 10720 [1]: <=0.1 μM | MIC MH 12587 [2]: 1.6 µM (≈ 0.747 µg/mL) | MIC [3]: 0.4 µM (≈ 0.187 µg/mL) | MIC [4]: 0.4 µM (≈ 0.187 µg/mL) | MIC PM 12080 [5]: <=0.1 μM | MIC PM 6267 [6]: <=0.1 μM | MIC PM 6391 [7]: <=0.1 μM | MIC [9]: 1.6 µM (≈ 0.747 µg/mL)

CC(O)C(NC(=O)c1ccc(C#CC#CC=CCNC2CC2)cc1)C(=O)NO (centres unmarked) [Compound 444]
MIC MH 10720 [1]: <=0.1 μM | MIC MH 12587 [2]: 1.6 µM (≈ 0.61 µg/mL) | MIC [3]: 0.4 µM (≈ 0.153 µg/mL) | MIC [4]: 0.8 µM (≈ 0.305 µg/mL) | MIC PM 12080 [5]: <=0.1 μM | MIC PM 6267 [6]: <=0.1 μM | MIC PM 6391 [7]: <=0.1 μM | MIC [9]: 1.6 µM (≈ 0.61 µg/mL)

Reference: patent US20230000813A1, “COMPOUND FOR THE TREATMENT OF BOVINE OR SWINE RESPIRATORY DISEASE” (Intervet Inc., priority 2016, published 2023)
